Reference: PubChem BioAssay (NCI)
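Cultured in 96-well plates, cells were exposed to test compound for 48 hours across five concentrations. The concentration for 50% growth inhibition is given as GI50. TGI denotes the concentration required for complete inhibition of growth.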

Columns and labels:
Assay in all cases: growth of human tumour cells (NCI), 48 h
786-0 renal = test system: 786-0 renal
A498 renal = test system: A498 renal
A549 NSCLC = test system: A549 NSCLC
ACHN renal = test system: ACHN renal
BT-549 breast = test system: BT-549 breast
CAKI-1 renal = test system: CAKI-1 renal
CCRF-CEM leukemia = test system: CCRF-CEM leukemia
COLO 205 colon = test system: COLO 205 colon
DU-145 prostate = test system: DU-145 prostate
EKVX NSCLC = test system: EKVX NSCLC
HCC-2998 colon = test system: HCC-2998 colon
HCT-116 colon = test system: HCT-116 colon
HCT-15 colon = test system: HCT-15 colon
HL-60(TB) leukemia = test system: HL-60(TB) leukemia
HOP-62 NSCLC = test system: HOP-62 NSCLC
HOP-92 NSCLC = test system: HOP-92 NSCLC
HS 578T breast = test system: HS 578T breast
HT29 colon = test system: HT29 colon
IGROV1 ovarian = test system: IGROV1 ovarian
K-562 leukemia = test system: K-562 leukemia
KM12 colon = test system: KM12 colon
LOX IMVI melanoma = test system: LOX IMVI melanoma
M14 melanoma = test system: M14 melanoma
MALME-3M melanoma = test system: MALME-3M melanoma
MCF7 breast = test system: MCF7 breast
MDA-MB-231 breast = test system: MDA-MB-231 breast
MDA-MB-435 = test system: MDA-MB-435
MDA-MB-468 breast = test system: MDA-MB-468 breast
MOLT-4 leukemia = test system: MOLT-4 leukemia
NCI-H226 lung = test system: NCI-H226 lung
NCI-H23 lung = test system: NCI-H23 lung
NCI-H460 lung = test system: NCI-H460 lung
NCI-H522 lung = test system: NCI-H522 lung
NCI/ADR-RES ovarian = test system: NCI/ADR-RES ovarian
OVCAR-3 ovarian = test system: OVCAR-3 ovarian
OVCAR-4 ovarian = test system: OVCAR-4 ovarian
OVCAR-5 ovarian = test system: OVCAR-5 ovarian
OVCAR-8 ovarian = test system: OVCAR-8 ovarian
PC-3 prostate = test system: PC-3 prostate
RPMI-8226 leukemia = test system: RPMI-8226 leukemia
RXF 393 renal = test system: RXF 393 renal
SF-268 CNS = test system: SF-268 CNS
SF-295 CNS = test system: SF-295 CNS
SF-539 CNS = test system: SF-539 CNS
SK-MEL-2 melanoma = test system: SK-MEL-2 melanoma
SK-MEL-28 melanoma = test system: SK-MEL-28 melanoma
SK-MEL-5 melanoma = test system: SK-MEL-5 melanoma
SK-OV-3 ovarian = test system: SK-OV-3 ovarian
SN12C renal = test system: SN12C renal
SNB-19 CNS = test system: SNB-19 CNS
SNB-75 CNS = test system: SNB-75 CNS
SR leukemia = test system: SR leukemia
SW-620 colon = test system: SW-620 colon
T-47D breast = test system: T-47D breast
TK-10 renal = test system: TK-10 renal
U251 CNS = test system: U251 CNS
UACC-257 melanoma = test system: UACC-257 melanoma
UACC-62 melanoma = test system: UACC-62 melanoma
UO-31 renal = test system: UO-31 renal

CN1CCc2c(sc3ncnc(N/N=C/c4cn(-c5ccccc5)nc4-c4ccc(Cl)cc4)c23)C1
GI50 (786-0 renal): 588 nM | TGI (786-0 renal): 18000 nM | GI50 (A498 renal): > 56700 nM | TGI (A498 renal): > 100000 nM | GI50 (A549 NSCLC): 496 nM | TGI (A549 NSCLC): > 100000 nM | GI50 (ACHN renal): 481 nM | TGI (ACHN renal): 20400 nM | GI50 (BT-549 breast): 2890 nM | TGI (BT-549 breast): > 31800 nM | GI50 (CAKI-1 renal): 1320 nM | TGI (CAKI-1 renal): > 66700 nM | GI50 (CCRF-CEM leukemia): 504 nM | TGI (CCRF-CEM leukemia): > 100000 nM | GI50 (COLO 205 colon): 406 nM | TGI (COLO 205 colon): > 100000 nM | GI50 (DU-145 prostate): 1410 nM | TGI (DU-145 prostate): > 100000 nM | GI50 (EKVX NSCLC): 313 nM | TGI (EKVX NSCLC): > 42600 nM | GI50 (HCC-2998 colon): 500 nM | TGI (HCC-2998 colon): 34800 nM | GI50 (HCT-116 colon): 115 nM | GI50 (HCT-15 colon): 390 nM | TGI (HCT-15 colon): > 100000 nM | GI50 (HL-60(TB) leukemia): 292 nM | TGI (HL-60(TB) leukemia): 1980 nM | GI50 (HOP-62 NSCLC): 724 nM | TGI (HOP-62 NSCLC): > 84300 nM | GI50 (HOP-92 NSCLC): 643 nM | TGI (HOP-92 NSCLC): 49600 nM | GI50 (HS 578T breast): 15600 nM | TGI (HS 578T breast): > 89700 nM | GI50 (HT29 colon): 442 nM | TGI (HT29 colon): 13900 nM | GI50 (IGROV1 ovarian): 379 nM | TGI (IGROV1 ovarian): 21100 nM | GI50 (K-562 leukemia): 290 nM | TGI (K-562 leukemia): > 100000 nM | GI50 (KM12 colon): 496 nM | TGI (KM12 colon): > 100000 nM | GI50 (LOX IMVI melanoma): 305 nM | TGI (LOX IMVI melanoma): 4120 nM | GI50 (M14 melanoma): 598 nM | TGI (M14 melanoma): > 38700 nM | GI50 (MALME-3M melanoma): 999 nM | TGI (MALME-3M melanoma): > 100000 nM | GI50 (MCF7 breast): 223 nM | TGI (MCF7 breast): 635 nM | GI50 (MDA-MB-231 breast): 468 nM | TGI (MDA-MB-231 breast): 32000 nM | GI50 (MDA-MB-435): 1610 nM | TGI (MDA-MB-435): > 100000 nM | GI50 (MDA-MB-468 breast): 208 nM | TGI (MDA-MB-468 breast): 595 nM | GI50 (MOLT-4 leukemia): 319 nM | TGI (MOLT-4 leukemia): > 100000 nM | GI50 (NCI-H226 lung): 1190 nM | TGI (NCI-H226 lung): > 65900 nM | GI50 (NCI-H23 lung): 326 nM | TGI (NCI-H23 lung): 10800 nM | GI50 (NCI-H460 lung): 390 nM | TGI (NCI-H460 lung): 30000 nM | GI50 (NCI-H522 lung): 323 nM | TGI (NCI-H522 lung): 5380 nM | GI50 (NCI/ADR-RES ovarian): 320 nM | TGI (NCI/ADR-RES ovarian): 1760 nM | GI50 (OVCAR-3 ovarian): 242 nM | TGI (OVCAR-3 ovarian): 6220 nM | GI50 (OVCAR-4 ovarian): 462 nM | TGI (OVCAR-4 ovarian): 69900 nM | GI50 (OVCAR-5 ovarian): 419 nM | TGI (OVCAR-5 ovarian): > 100000 nM | GI50 (OVCAR-8 ovarian): 368 nM | TGI (OVCAR-8 ovarian): > 38500 nM | GI50 (PC-3 prostate): 472 nM | TGI (PC-3 prostate): > 100000 nM | GI50 (RPMI-8226 leukemia): 443 nM | TGI (RPMI-8226 leukemia): > 100000 nM | GI50 (RXF 393 renal): 3560 nM | TGI (RXF 393 renal): 34600 nM | GI50 (SF-268 CNS): 678 nM | TGI (SF-268 CNS): > 100000 nM | GI50 (SF-295 CNS): 403 nM | TGI (SF-295 CNS): > 37700 nM | GI50 (SF-539 CNS): 345 nM | TGI (SF-539 CNS): 10700 nM | GI50 (SK-MEL-2 melanoma): 990 nM | TGI (SK-MEL-2 melanoma): 24400 nM | GI50 (SK-MEL-28 melanoma): 5560 nM | TGI (SK-MEL-28 melanoma): > 100000 nM | GI50 (SK-MEL-5 melanoma): 544 nM | TGI (SK-MEL-5 melanoma): 20500 nM | GI50 (SK-OV-3 ovarian): > 36200 nM | TGI (SK-OV-3 ovarian): > 76100 nM | GI50 (SN12C renal): 340 nM | TGI (SN12C renal): > 100000 nM | GI50 (SNB-19 CNS): 3280 nM | TGI (SNB-19 CNS): > 57300 nM | GI50 (SNB-75 CNS): 13800 nM | TGI (SNB-75 CNS): 60800 nM | GI50 (SR leukemia): 2660 nM | TGI (SR leukemia): > 100000 nM | GI50 (SW-620 colon): 387 nM | TGI (SW-620 colon): > 100000 nM | GI50 (T-47D breast): 2590 nM | TGI (T-47D breast): > 100000 nM | GI50 (TK-10 renal): 2470 nM | TGI (TK-10 renal): 38300 nM | GI50 (U251 CNS): 688 nM | TGI (U251 CNS): > 54100 nM | GI50 (UACC-257 melanoma): 473 nM | TGI (UACC-257 melanoma): > 100000 nM | GI50 (UACC-62 melanoma): 787 nM | TGI (UACC-62 melanoma): 14400 nM | GI50 (UO-31 renal): 475 nM | TGI (UO-31 renal): 25400 nM
